“Also recorded” adds a separate entry of the source. Like-named read-outs stand apart in the source and are kept apart here.
Legend:
human KCa2.3 = target: T1, human KCa2.3 (Homo sapiens, UniProt Q9UGI6); assay: Manual whole-cell patch-clamp KCa2.3 activation (COS-7); type: cell-based
T1 construct: The cloning of hKCa2.3 (19 CAG repeats) and hKCa3.1 has been previously described (Wulff et al., 2000)
From the text: Cells, Cell lines and Clones. […] The cloning of hKCa2.3 (19 CAG repeats) and hKCa3.1 has been previously described (Wulff et al., 2000). The hKCa2.3 clone was later stably expressed in COS-7 cells at Aurora Biosciences Corp., San Diego, Calif. Cell lines stably expressing other mammalian ion channels were gifts from several sources: hKCa1.1 in HEK-293 cells (Andrew Tinker, University College London); hKV2.1 in HEK293 cells (James Trimmer, UC Davis); KV11.1 (HERG) in HEK-293 cells (Craig January, University of Wisconsin, Madison); hNaV1.4 in HEK-293 cells (Frank Lehmann-Horn, University of Ulm, Germany), hNaV1.5 in HEK-293 cells (Christopher Lossin, University of California Davis), and hCaV1.2 in HEK-293 cells (Franz Hofmann, Munich, Germany).
Electrophysiology. Experiments were conducted either manually with an EPC-10 amplifier (HEKA, Lambrecht/Pfalz, Germany) or on a QPatch-16 automated electrophysiology platform (Sophion Biosciences, Denmark). […] Patch pipettes were pulled from soda lime glass (micro-hematocrit tubes, Kimble Chase, Rochester, N.Y.) and had resistances of 2-3 MΩ. […] Free Ca^2+ concentrations were calculated with MaxChelator assuming a temperature of 25° C., a pH of 7.2 and an ionic strength of 160 mM. […] Na^+ aspartate Ringer was used as an external solution (in mM): 160 Na^+ aspartate, 4.5 KCl, 2 CaCl2, 1 MgCl2, 5 HEPES, pH 7.4, 290-310 mOsm. […] Reduction of both peak and tail current by the drug was determined. NaV1.7 currents were recorded with 30 ms pulses from −90 mV to −10 mV every 10 sec with a CsF-based pipette solution and normal Ringer as an external solution. CaV1.2 currents were elicited by 100-ms depolarizing pulses from −80 to 20 mV every 10 sec with a CsCl-based pipette solution and an external solution containing 30 mM BaCl2. Blockade of both Na^+ and Ca^2+ currents was determined as reduction of the current minimum.
For all electrophysiology experiments solutions of benzothiazoles and benzooxazoles were always freshly prepared from 1 mM or 10 mM stock solutions in DMSO during the experiment. The final DMSO concentration never exceeded 1%. For automated assays glass vial inserts (Sophion Biosciences, Denmark) were filled with 350-400 μL of compound solution and placed into the glass insert base plate for use in the QPatch assay right before starting the QPatch.
The compounds synthesized by these methods as well as five commercially available compounds were tested for their KCa2.3 and KCa3.1 activating activity using either manual or automated whole-cell patch-clamp. Our group previously described the establishment of a QPatch assay for KCa3.1 modulators. […] We here made use of this assay and determined EC50 values for KCa3.1 activation using HEK-293 cells stably expressing human KCa3.1. Activities on human KCa2.3 were determined by manual electrophysioiogy since we currently only have KCa2.3 available in COS-7 cells, which are difficult to handle on the QPatch.

mNaV1.2 = target: T2, mNaV1.2 (Mus musculus, UniProt B1AWN6); assay: NaV1.2 current inhibition (N1E-115 cells); type: cell-based
T2 construct: NaV1.2 currents from N1E-115 cells; host or cells: N1E-115 mouse neuroblastoma

hCaV1.2 = target: T3, hCaV1.2 (Homo sapiens, UniProt Q13936); assay: CaV1.2 current inhibition (HEK-293); type: cell-based; details: HEK293
T3 construct: host or cells: HEK-293

[1] = tested on: L-NAME-treated moderately hypertensive mice; assay: Telemetry in L-NAME-treated hypertensive mice; type: in vivo, mouse
Description: Telemetry. […] Maximal injection volume was ≤600 μl. […] Data were analyzed using the DSI software.
In contrast, SKA-121 at 100 mg/kg produced a significant drop in MAP by ˜25 mm Hg over 6 h.

[2] = Plasma protein binding by ultrafiltration; type: in vitro ADME; details: rat plasma, 10 μM compound
Description: Rat plasma (500 μl) was spiked with 10 μM of compound in 1% dimethylsulfoxide and the sample loaded onto a Microcon YM-30 Centrifugal Filter (Millipore Corp., Bedford, Mass., USA) and centrifuged at 13,500 g for 30 minutes at room temperature. The retentate was collected by inverting the filter into an Eppendorf tube and spinning at 13,500 g for 15 minutes.

[3] = tested on: porcine coronary arteries; assay: Isometric myography on porcine coronary arteries, bradykinin-induced EDH-type relaxation; details: compound 1 μM; for BK (1 μM)-induced relaxation potentiated to: U46619-precontracted, L-NNA and indomethacin
From the text: Isometric Myography on Porcine Coronary Arteries (PCA). PCA were carefully dissected from hearts kindly provided by the local abattoir (Mercazaragoza, Zaragoza, Spain), cleaned of fat and connective tissue, and cut into 3-4 mm rings. Rings were mounted on hooks connected to an isometric force transducer (Pioden UF1, Graham Bell House, Canterbury, UK) and were pre-stretched to an initial tension of 1 g. […] Changes in tension were registered using a Mac Lab System/8e program (AD Instruments Inc., Milford, Mass.). The buffer contained the NO-synthase blocker, Nω-nitro-L-arginine (L-NNA, 300 μM), and the cyclooxygenase blocker indomethacin (10 μM) in order to measure EDH-type relaxation. […] After washout, rings were contracted with a high KCl buffer (60 mM) to determine maximal contraction. […] UCL1684 and U46619 were purchased from Tocris (Wiesbaden-Nordenstadt, Germany). Data analysis: EDH-type relaxations were determined as % change of U46619 contraction and are shown relative to the totally relaxed state (w/o U46619).

T1 sequence (Q9UGI6 with tags, fused parts or gaps DUP76-80): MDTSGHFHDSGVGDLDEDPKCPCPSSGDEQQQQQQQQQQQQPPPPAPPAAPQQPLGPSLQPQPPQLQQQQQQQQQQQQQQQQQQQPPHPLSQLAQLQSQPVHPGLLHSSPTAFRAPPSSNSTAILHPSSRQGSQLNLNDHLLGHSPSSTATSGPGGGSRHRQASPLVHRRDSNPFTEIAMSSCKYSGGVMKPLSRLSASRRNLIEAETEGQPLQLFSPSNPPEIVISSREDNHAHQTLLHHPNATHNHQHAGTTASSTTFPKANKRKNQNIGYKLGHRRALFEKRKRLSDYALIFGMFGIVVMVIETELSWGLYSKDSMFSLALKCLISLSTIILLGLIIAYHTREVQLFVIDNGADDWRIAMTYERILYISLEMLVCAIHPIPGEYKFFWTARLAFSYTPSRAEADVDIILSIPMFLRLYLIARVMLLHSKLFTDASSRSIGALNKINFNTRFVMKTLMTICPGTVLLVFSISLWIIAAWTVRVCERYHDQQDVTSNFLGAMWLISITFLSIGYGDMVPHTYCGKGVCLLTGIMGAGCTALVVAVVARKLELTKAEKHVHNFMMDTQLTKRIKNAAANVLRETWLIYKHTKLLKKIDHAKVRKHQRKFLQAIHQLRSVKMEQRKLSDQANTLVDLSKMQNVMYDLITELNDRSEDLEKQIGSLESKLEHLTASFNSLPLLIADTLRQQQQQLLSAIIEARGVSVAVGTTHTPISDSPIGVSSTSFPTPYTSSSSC
T3 sequence (Q13936 whole entry): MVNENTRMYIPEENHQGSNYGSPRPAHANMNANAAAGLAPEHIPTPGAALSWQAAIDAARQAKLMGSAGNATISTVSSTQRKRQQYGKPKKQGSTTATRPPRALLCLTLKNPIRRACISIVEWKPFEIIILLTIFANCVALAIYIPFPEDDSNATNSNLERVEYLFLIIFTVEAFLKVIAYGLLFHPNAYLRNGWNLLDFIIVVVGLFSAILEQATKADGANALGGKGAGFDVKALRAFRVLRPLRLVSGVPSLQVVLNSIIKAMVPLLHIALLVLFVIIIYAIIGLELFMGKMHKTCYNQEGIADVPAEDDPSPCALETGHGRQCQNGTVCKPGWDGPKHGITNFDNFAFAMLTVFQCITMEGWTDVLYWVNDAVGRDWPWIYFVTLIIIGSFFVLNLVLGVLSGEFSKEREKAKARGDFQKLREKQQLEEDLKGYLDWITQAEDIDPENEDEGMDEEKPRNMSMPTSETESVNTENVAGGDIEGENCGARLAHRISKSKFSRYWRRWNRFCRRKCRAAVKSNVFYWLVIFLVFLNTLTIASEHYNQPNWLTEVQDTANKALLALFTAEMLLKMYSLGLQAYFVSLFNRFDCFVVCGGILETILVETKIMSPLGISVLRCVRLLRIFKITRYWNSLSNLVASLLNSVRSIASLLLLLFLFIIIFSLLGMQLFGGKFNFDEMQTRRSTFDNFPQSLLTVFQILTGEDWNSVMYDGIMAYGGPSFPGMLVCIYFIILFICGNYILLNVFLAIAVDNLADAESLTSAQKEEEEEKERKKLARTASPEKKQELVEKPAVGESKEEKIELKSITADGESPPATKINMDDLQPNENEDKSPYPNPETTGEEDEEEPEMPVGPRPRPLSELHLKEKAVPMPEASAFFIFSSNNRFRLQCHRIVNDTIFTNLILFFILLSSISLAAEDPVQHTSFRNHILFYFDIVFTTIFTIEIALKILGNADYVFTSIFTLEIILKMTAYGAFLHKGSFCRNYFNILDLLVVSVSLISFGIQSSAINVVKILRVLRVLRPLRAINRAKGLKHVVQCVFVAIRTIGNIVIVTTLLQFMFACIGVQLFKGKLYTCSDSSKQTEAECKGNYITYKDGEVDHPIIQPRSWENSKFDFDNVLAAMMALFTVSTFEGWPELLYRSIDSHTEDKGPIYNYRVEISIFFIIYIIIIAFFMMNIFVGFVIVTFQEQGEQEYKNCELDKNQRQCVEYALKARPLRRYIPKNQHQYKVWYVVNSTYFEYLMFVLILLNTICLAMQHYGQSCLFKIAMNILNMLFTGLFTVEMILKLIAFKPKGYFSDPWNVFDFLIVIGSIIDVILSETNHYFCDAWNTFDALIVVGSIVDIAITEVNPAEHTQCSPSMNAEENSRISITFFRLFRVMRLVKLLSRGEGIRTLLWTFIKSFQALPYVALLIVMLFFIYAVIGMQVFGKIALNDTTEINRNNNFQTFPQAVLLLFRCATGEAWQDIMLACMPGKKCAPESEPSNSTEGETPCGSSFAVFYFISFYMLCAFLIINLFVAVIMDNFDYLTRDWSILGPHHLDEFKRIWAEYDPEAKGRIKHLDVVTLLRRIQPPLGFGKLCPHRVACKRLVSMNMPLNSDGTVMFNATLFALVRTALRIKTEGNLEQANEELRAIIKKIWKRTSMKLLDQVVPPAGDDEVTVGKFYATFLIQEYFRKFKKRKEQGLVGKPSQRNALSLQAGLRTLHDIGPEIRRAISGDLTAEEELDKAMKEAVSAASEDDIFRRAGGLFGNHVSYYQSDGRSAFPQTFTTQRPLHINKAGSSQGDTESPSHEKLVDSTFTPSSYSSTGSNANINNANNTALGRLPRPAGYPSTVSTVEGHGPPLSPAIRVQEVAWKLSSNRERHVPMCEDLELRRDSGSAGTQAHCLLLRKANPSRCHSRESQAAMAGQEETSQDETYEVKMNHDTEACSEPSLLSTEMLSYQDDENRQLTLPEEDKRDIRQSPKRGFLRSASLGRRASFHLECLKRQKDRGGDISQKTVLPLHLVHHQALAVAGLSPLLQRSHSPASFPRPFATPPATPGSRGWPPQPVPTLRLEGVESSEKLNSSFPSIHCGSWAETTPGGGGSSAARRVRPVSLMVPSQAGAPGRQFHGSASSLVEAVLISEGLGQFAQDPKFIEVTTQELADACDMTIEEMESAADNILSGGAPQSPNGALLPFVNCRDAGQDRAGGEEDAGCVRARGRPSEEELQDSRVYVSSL
T2 sequence (B1AWN6 whole entry): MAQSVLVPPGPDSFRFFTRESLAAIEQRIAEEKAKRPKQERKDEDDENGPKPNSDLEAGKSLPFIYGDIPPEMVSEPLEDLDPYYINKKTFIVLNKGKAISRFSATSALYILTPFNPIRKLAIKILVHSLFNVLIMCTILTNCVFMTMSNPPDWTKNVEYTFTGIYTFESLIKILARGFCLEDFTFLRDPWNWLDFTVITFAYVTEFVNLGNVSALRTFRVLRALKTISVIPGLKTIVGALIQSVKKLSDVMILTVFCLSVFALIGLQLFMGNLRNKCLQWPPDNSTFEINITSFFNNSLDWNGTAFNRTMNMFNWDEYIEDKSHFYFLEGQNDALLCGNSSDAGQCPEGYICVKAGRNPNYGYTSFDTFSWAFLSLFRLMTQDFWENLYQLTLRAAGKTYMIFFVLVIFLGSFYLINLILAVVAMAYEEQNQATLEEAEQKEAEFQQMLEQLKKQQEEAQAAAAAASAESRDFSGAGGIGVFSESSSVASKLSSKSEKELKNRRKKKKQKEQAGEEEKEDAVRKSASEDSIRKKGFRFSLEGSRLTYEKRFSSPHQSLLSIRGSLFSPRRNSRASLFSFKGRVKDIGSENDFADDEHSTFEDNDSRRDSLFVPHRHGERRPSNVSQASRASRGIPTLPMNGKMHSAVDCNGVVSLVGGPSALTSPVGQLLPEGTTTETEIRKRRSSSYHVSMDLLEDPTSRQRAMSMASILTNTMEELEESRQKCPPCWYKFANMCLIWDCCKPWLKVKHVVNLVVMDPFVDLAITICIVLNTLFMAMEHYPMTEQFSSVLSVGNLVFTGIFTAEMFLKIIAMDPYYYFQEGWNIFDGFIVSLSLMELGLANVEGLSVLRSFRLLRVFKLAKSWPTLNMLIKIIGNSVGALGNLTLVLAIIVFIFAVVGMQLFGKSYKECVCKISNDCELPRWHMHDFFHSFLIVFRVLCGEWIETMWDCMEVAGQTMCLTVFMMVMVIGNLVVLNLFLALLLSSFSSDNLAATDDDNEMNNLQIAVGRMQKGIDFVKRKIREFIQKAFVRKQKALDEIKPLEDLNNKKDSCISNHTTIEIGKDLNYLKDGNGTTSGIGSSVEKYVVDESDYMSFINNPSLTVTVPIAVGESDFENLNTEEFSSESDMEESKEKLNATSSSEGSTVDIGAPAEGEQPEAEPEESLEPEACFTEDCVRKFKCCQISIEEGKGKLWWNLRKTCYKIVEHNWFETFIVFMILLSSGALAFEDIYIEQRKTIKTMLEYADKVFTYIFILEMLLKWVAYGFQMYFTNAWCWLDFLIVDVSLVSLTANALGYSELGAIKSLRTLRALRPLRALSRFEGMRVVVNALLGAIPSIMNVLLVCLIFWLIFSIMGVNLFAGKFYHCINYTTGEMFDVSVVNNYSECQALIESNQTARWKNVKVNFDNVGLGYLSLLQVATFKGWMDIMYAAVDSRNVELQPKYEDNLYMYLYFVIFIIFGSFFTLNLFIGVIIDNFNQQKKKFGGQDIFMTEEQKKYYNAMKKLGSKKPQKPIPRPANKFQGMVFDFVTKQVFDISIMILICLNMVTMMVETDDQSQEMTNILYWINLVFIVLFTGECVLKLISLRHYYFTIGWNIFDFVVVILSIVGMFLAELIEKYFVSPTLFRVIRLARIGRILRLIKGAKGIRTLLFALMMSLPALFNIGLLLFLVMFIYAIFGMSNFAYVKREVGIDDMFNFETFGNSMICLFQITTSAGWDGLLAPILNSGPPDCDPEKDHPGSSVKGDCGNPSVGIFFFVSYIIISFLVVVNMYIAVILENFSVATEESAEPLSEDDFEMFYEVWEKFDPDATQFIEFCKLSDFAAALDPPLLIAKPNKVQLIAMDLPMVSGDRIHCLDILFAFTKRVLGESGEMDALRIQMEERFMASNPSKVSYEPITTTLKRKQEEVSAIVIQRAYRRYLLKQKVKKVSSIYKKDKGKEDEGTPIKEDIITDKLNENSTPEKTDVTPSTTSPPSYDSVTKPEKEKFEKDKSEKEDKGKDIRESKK

Structure (SMILES)	EC50 (human KCa2.3; 250 nM free Ca2+; read-out: EC50 for KCa2.3 activation)	Hill coefficient nH, KCa2.3 concentration-response curve (human KCa2.3; FIG. 4 legend)	EC50 (human KCa2.3; Table 1; 250 nM free Ca2+; read-out: KCa2.3 EC50)	inhibition at 50 µM (mNaV1.2; at 50 μM)	inhibition at 50 µM (hCaV1.2; at 50 μM)	HR ([1]; 100 mg/kg i.p.)	drop in MAP ([1]; 100 mg/kg i.p.)	duration of MAP drop ([1]; 100 mg/kg i.p.)	blood pressure ([1]; 100 mg/kg i.p., FIG. 6B)	fraction unbound at 30 min, 10 μM [2]	bradykinin-induced EDH-type relaxation [3]	BK (1 μM)-induced relaxation potentiated to [3]	EC50 (human KCa2.3; read-out: EC50 for KCa2.3 activation; 250 nM free Ca2+)	inhibition at 25 µM (mNaV1.2; at 25 μM)	inhibition at 25 µM (hCaV1.2; at 25 μM)	HR ([1]; 60 mg/kg i.p.)	MAP ([1]; 60 mg/kg i.p.)
Cc1cc2nc(N)oc2c2ccccc12 [SKA-121, 5-Methylnaphtho[2,1-d]oxazol-2-amine]	4.4 ± 2.3 µM	1.6	4.4 ± 2.6 µM	15.2 ± 12.7%	48.9 ± 2.7%	remained virtually stable; also recorded: minor decrease	~25 mm Hg	6 h	reduced blood pressure	0.19	increased	≈ 300%					
Cc1cc2sc(N)nc2c2ccccc12 [SKA-111, 5-methylnaphtho[1,2-d]thiazol-2-amine]										0.41	increased	≈ 200%	13.7 ± 6.9 µM	19.5 ± 6.9%	49.5 ± 17%	remained virtually stable; also recorded: only a minor drop	reduced blood pressure; also recorded: only a minor drop

— US11173146B2, “Selective activators of the intermediate conductance CA2+activated K+ channel KCa3.1 and their methods of use” (The Regents of the University of California, priority 2014, dated 2021)
